According to US20250179061A1 (SIRONAX LTD., priority 2022, published 2025):
Where a name gives a salt, the structure may show the parent alone.

tested on: HT-29 cells; test: HT-29 necroptosis cell viability assay (TNF-α/SMAC mimetic/zVAD-FMK, CellTiter-Glo); assay type: cell-based; conditions: Homo sapiens, HT-29, HT-29 necroptosis cell viability assay; class symbols for IC50; read-out: Activity
Procedure, shortened: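 HT-29 cells (~5,000/well, overnight) in FBS-free McCoy's 5A with TNF-α 10 ng/ml, SMAC mimetic 6 μM and zVAD-FMK 10 μM plus 10-point 1:3 compound titration, 20 h at 37°C. ATP measured by CellTiter-Glo luminescence; IC50 as geometric mean of duplicates.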

Row | Structure (SMILES) | IC50 [nM]
1 | CC1(OC(F)(F)F)CN(c2cc(Oc3ccc(-n4ncn(Cc5c(F)cccc5F)c4=O)cc3F)c(Cl)cn2)C1 [Example 506, 2-(4-((5-chloro-2-(3-methyl-3-(trifluoromethoxy)azetidin-1-yl)pyridin-4-yl)oxy)-3-fluorophenyl)-4-(2,6-difluorobenzyl)-2,4-dihydro-3H-1,2,4-triazol-3-one] | < 100
2 | Cc1nc(N2CC(C)(N)C2)sc1C(=O)c1ccc(-n2ncn(Cc3c(F)cccc3F)c2=O)cc1 [Example 507, 2-(4-(2-(3-amino-3-methylazetidin-1-yl)-4-methylthiazole-5-carbonyl)phenyl)-4-(2,6-difluorobenzyl)-2,4-dihydro-3H-1,2,4-triazol-3-one trifluoroacetate] | 100 to 1000
3 | Cc1nc(N2CC(C)(NC(=O)OC(C)(C)C)C2)sc1C(=O)c1ccc(-n2ncn(Cc3c(F)cccc3F)c2=O)cc1 [Example 508, tert-butyl (1-(5-(4-(4-(2,6-difluorobenzyl)-5-oxo-4,5-dihydro-1H-1,2,4-triazol-1-yl)benzoyl)-4-methylthiazol-2-yl)-3-methylazetidin-3-yl)carbamate] | 100 to 1000
4 | Cc1nc(N2CC(C)(N)C2)sc1Cc1ccc(-n2ncn(Cc3c(F)cccc3F)c2=O)cc1 [Example 509, 2-(4-((2-(3-amino-3-methylazetidin-1-yl)-4-methylthiazol-5-yl)methyl)phenyl)-4-(2,6-difluorobenzyl)-2,4-dihydro-3H-1,2,4-triazol-3-one] | < 100
5 | Cc1nc(N2CC(C)(C#N)C2)sc1C(=O)c1ccc(-n2ncn(Cc3c(F)cccc3F)c2=O)cc1 [Example 510, 1-(5-(4-(4-(2,6-difluorobenzyl)-5-oxo-4,5-dihydro-1H-1,2,4-triazol-1-yl)benzoyl)-4-methylthiazol-2-yl)-3-methylazetidine-3-carbonitrile] | 100 to 1000
6 | Cc1nc(N2CC(C)(C#N)C2)sc1C(O)c1ccc(-n2ncn(Cc3c(F)cccc3F)c2=O)cc1 (stereo not drawn) [Example 511, 1-(5-((4-(4-(2,6-difluorobenzyl)-5-oxo-4,5-dihydro-1H-1,2,4-triazol-1-yl)phenyl)(hydroxy)methyl)-4-methylthiazol-2-yl)-3-methylazetidine-3-carbonitrile] | 1000 to 10000
7 | Cc1nc(N2CC(C)(C#N)C2)sc1Cc1ccc(-n2ncn(Cc3c(F)cccc3F)c2=O)cc1 [Example 512, 1-(5-(4-(4-(2,6-difluorobenzyl)-5-oxo-4,5-dihydro-1H-1,2,4-triazol-1-yl)benzyl)-4-methylthiazol-2-yl)-3-methylazetidine-3-carbonitrile] | < 100
8 | Cc1nc(N2CC(C)(N)C2)sc1C(C)c1ccc(-n2ncn(Cc3c(F)cccc3F)c2=O)cc1 (stereo not drawn) [Example 513, 2-[4-[1-[2-(3-amino-3-methyl-azetidin-1-yl)-4-methyl-thiazol-5-yl]ethyl]phenyl]-4-[(2,6-difluorophenyl)methyl]-1,2,4-triazol-3-one; 2,2,2-trifluoroacetic acid] | 100 to 1000
9 | Cc1nc(N2CC(C)(NC(=O)OC(C)(C)C)C2)sc1C(C)c1ccc(-n2ncn(Cc3c(F)cccc3F)c2=O)cc1 (stereo not drawn) [Example 514, tert-butyl (1-(5-(1-(4-(4-(2,6-difluorobenzyl)-5-oxo-4,5-dihydro-1H-1,2,4-triazol-1-yl)phenyl)ethyl)-4-methylthiazol-2-yl)-3-methylazetidin-3-yl)carbamate] | < 100
10 | Cc1nc(N2CC(C)(NC(=O)OC(C)(C)C)C2)sc1C(C)(O)c1ccc(-n2ncn(Cc3c(F)cccc3F)c2=O)cc1 (stereo not drawn) [Example 516, tert-butyl (1-(5-(1-(4-(4-(2,6-difluorobenzyl)-5-oxo-4,5-dihydro-1H-1,2,4-triazol-1-yl)phenyl)-1-hydroxyethyl)-4-methylthiazol-2-yl)-3-methylazetidin-3-yl)carbamate] | < 100
11 | CCOC1CN(c2nn(C)c(Oc3ccc(-n4ncn(Cc5c(F)cccc5F)c4=O)cc3)c2N)C1 [Example 517, 2-(4-((4-amino-3-(3-ethoxyazetidin-1-yl)-1-methyl-1H-pyrazol-5-yl)oxy)phenyl)-4-(2,6-difluorobenzyl)-2,4-dihydro-3H-1,2,4-triazol-3-one] | 1000 to 10000
12 | Cc1ncc(C#N)cc1Oc1ccc(-n2ncn(Cc3c(F)cccc3F)c2=O)cc1 [Example 518, 5-(4-(4-(2,6-difluorobenzyl)-5-oxo-4,5-dihydro-1H-1,2,4-triazol-1-yl)phenoxy)-6-methylnicotinonitrile] | 1000 to 10000
13 | CC(C)(C)CC(=O)Nc1cc(Oc2ccc(-n3ncn(Cc4c(F)cccc4F)c3=O)cc2)ccn1 [Example 519, N-[4-[4-[4-[(2,6-difluorophenyl)methyl]-5-oxo-1,2,4-triazol-1-yl]phenoxy]-2-pyridyl]-3,3-dimethyl-butanamide] | 100 to 1000
14 | O=C(CC1CC1)Nc1cc(Oc2ccc(-n3ncn(Cc4c(F)cccc4F)c3=O)cc2)ccn1 [Example 520, 2-cyclopropyl-N-[4-[4-[4-[(2,6-difluorophenyl)methyl]-5-oxo-1,2,4-triazol-1-yl]phenoxy]-2-pyridyl]acetamide] | 100 to 1000
15 | CC(=O)Nc1cc(Oc2ccc(-n3ncn(Cc4c(F)cccc4F)c3=O)cc2)ccn1 [Example 521, N-[4-[4-[4-[(2,6-difluorophenyl)methyl]-5-oxo-1,2,4-triazol-1-yl]phenoxy]-2-pyridyl]acetamide] | 100 to 1000
16 | O=C1CC(n2ncn(Cc3ccccc3)c2=O)CCN1Cc1ccccc1 (stereo not drawn) [Example 522, 1-benzyl-4-(4-benzyl-5-oxo-4,5-dihydro-1H-1,2,4-triazol-1-yl)piperidin-2-one] | > 10000
17 | O=c1n(Cc2c(F)cccc2F)cnn1-c1ccc(Oc2ccnc(NC3CC3)c2)cc1 [Example 523, 2-(4-((2-(cyclopropylamino)pyridin-4-yl)oxy)phenyl)-4-(2,6-difluorobenzyl)-2,4-dihydro-3H-1,2,4-triazol-3-one] | 100 to 1000
18 | O=c1n(Cc2c(F)cccc2F)cnn1-c1ccc(Oc2ccnc(NCC3CC3)c2)cc1 [Example 524, 2-(4-((2-((cyclopropylmethyl)amino)pyridin-4-yl)oxy)phenyl)-4-(2,6-difluorobenzyl)-2,4-dihydro-3H-1,2,4-triazol-3-one] | < 100
19 | O=c1n(Cc2c(F)cccc2F)cnn1-c1ccc(Oc2ccnc(N3CCCC3)c2)cc1 [Example 525, 4-(2,6-difluorobenzyl)-2-(4-((2-(pyrrolidin-1-yl)pyridin-4-yl)oxy)phenyl)-2,4-dihydro-3H-1,2,4-triazol-3-one] | 100 to 1000
20 | O=c1n(Cc2c(F)cccc2F)cnn1-c1ccc(Oc2ccnc(N3CCOCC3)c2)cc1 [Example 526, 4-(2,6-difluorobenzyl)-2-(4-((2-morpholinopyridin-4-yl)oxy)phenyl)-2,4-dihydro-3H-1,2,4-triazol-3-one] | 1000 to 10000
21 | O=c1n(Cc2c(F)cccc2F)cnn1-c1ccc(Oc2ccnc(N3CC4(COC4)C3)c2)cc1 [Example 527, 2-(4-((2-(2-oxa-6-azaspiro[3.3]heptan-6-yl)pyridin-4-yl)oxy)pheny)-4-(2,6-difluorobenzyl)-2,4-dihydro-3H-1,2,4-triazol-3-one] | 100 to 1000
22 | CCC1(Nc2cc(Oc3ccc(-n4ncn(Cc5c(F)cccc5F)c4=O)cc3)ccn2)CC1 [Example 528, 4-(2,6-difluorobenzyl)-2-(4-((2-((1-ethylcyclopropyl)amino)pyridin-4-yl)oxy)phenyl)-2,4-dihydro-3H-1,2,4-triazol-3-one] | 100 to 1000
23 | O=c1n(Cc2c(F)cccc2F)cnn1-c1ccc(Oc2ccnc(N3CCCCC3)c2)cc1 [Example 529, 4-(2,6-difluorobenzyl)-2-(4-((2-(piperidin-1-yl)pyridin-4-yl)oxy)phenyl)-2,4-dihydro-3H-1,2,4-triazol-3-one] | 100 to 1000
24 | O=c1n(Cc2c(F)cccc2F)cnn1-c1ccc(Oc2ccnc(NC3CC4(COC4)C3)c2)cc1 [Example 530, 2-(4-((2-((2-oxaspiro[3.3]heptan-6-yl)amino)pyridin-4-yl)oxy)phenyl)-4-(2,6-difluorobenzyl)-2,4-dihydro-3H-1,2,4-triazol-3-one] | 100 to 1000
25 | CC1(Nc2cc(Oc3ccc(-n4ncn(Cc5c(F)cccc5F)c4=O)cc3)ccn2)COC1 [Example 531, 4-(2,6-difluorobenzyl)-2-(4-((2-((3-methyloxetan-3-yl)amino)pyridin-4-yl)oxy)phenyl)-2,4-dihydro-3H-1,2,4-triazol-3-one] | > 10000
26 | CC1(Nc2cc(Oc3ccc(-n4ncn(Cc5c(F)cccc5F)c4=O)cc3)ccn2)CC1 [Example 532, 4-(2,6-difluorobenzyl)-2-(4-((2-((1-methylcyclopropyl)amino)pyridin-4-yl)oxy)phenyl)-2,4-dihydro-3H-1,2,4-triazol-3-one] | < 100
27 | CCOC(=O)c1ocnc1Oc1ccc(-n2ncn(Cc3c(F)cccc3F)c2=O)cc1F [Example 534, ethyl 4-(4-(4-(2,6-difluorobenzyl)-5-oxo-4,5-dihydro-1H-1,2,4-triazol-1-yl)-2-fluorophenoxy)oxazole-5-carboxylate] | < 100
28 | CC(C)(O)C#Cc1cc(Oc2ccc(-n3ncn(Cc4c(F)cccc4F)c3=O)cc2)ccn1 [Example 535, 4-(2,6-difluorobenzyl)-2-(4-((2-(3-hydroxy-3-methylbut-1-yn-1-yl)pyridin-4-yl)oxy)phenyl)-2,4-dihydro-3H-1,2,4-triazol-3-one] | 100 to 1000
29 | O=c1n(Cc2c(F)cccc2F)cnn1-c1ccc(C2=CCOCC2)cc1 [Example 536, 4-(2,6-difluorobenzyl)-2-(4-(3,6-dihydro-2H-pyran-4-yl)phenyl)-2,4-dihydro-3H-1,2,4-triazol-3-one] | 1000 to 10000
30 | Cc1cc(N2CC(C)(N)C2)nn1Cc1ccc(-n2ncn(Cc3c(F)cccc3F)c2=O)cc1 [Example 537, 2-(4-((3-(3-amino-3-methylazetidin-1-yl)-5-methyl-1H-pyrazol-1-yl)methyl)phenyl)-4-(2,6-difluorobenzyl)-2,4-dihydro-3H-1,2,4-triazol-3-one] | 1000 to 10000
